# Measured values from US7473415B2, “Near infrared fluorescent contrast agent and method for fluorescence imaging” (Fuji Photo Film Co., Ltd., priority 2002, dated 2009).
# Test system: mouse colon carcinoma (colon 26 carcinoma)
# Assay: Fluorescence imaging test (Test Example 2), tumor bearing nude mice, excitation 740 nm
# Type: in vivo
# Method: Tumor bearing mice were prepared in the same manner as Test Example 1, and conditions for irradiation was the same as those explained in Test Example 1. Compound 5, Compound 7, and Compound 10 were used as test compounds. Each of the test compounds (0.5 mg/ml) was dissolved in physiological saline or phosphate buffer (pH 7.4) and administered to the mice via a tail vein at the dose of 5.0 mg/Kg. For comparison, the following compound (Compound B, 5 mg/kg, i.v.) was administered to the mice.
# Light was generated using a tunable, pulsed, solid state laser system consisting of an optical parametric oscillator (OPO) pumped by the third harmonic of a Nd:Yag laser (Coherent Inc.). An excitation wavelength of λex=740 nm was chosen and guided with an optical fiber to the tumor bearing nude mice. The dye-specific fluorescence exitance was imaged using a filter combination (Corion) and an intensified CCD camera (Roper Scientific.) at different times after dye administration (FIG. 4). Fluorescence imagings were taken before administration, and 1 min, 10 min, 30 min, 60 min, 2 hours, 4 hours, 24 hours after intravenous dye administration via the lateral tail venous at a standard dose of 5 mg/kg. In the first 60 min, the body temperature of the animals was kept at 38° C. with heating pad. Fluorescence imaging properties of the compounds were compared in nude mice tumor models. […]
SMILES,tumor imaging as compared to the reference compound (Compound B) (5.0 mg/Kg via tail vein),"position of tumor within 1 hour after the administration (5 mg/kg, i.v., FIG. 8)"
CC(/C=C/C=C1/N(CCC(=O)NC(CC(=O)O)C(=O)O)c2ccc3ccccc3c2C1(C)C)=C\C=C\C1=[N+](CCC(=O)NC(CC(=O)O)C(=O)O)c2ccc3ccccc3c2C1(C)C (centres unmarked) [Compound 5],clear images of tumors at a shorter time,–
CC1(C)C(/C=C/C=C/C=C/C=C2/N(CCCCS(=O)(=O)[O-])c3ccc(C(=O)NCC(O)C(O)C(O)C(O)CO)cc3C2(C)C)=[N+](CCCCS(=O)(=O)[O-])c2ccc(C(=O)NCC(O)C(O)C(O)C(O)CO)cc21.[Na+] (centres unmarked) [Compound B],–,not clear
